In paper PMC5583658, “6,7-dimethoxy-1,2,3,4-tetrahydro-isoquinoline-3-carboxylic acid attenuates heptatocellular carcinoma in rats with NMR-based metabolic perturbations” (Future Science OA, 2017):

Tested on: diethylnitrosamine-induced hepatocarcinogenic rats
Experiment: 1H-NMR-based serum metabolic profiling
Type: in vivo, albino Wistar rats
Settings: rat serum
Protocol: All animals were randomly divided into five groups of six animals each. Drugs were suspended in 0.25% CMC, subjected to 28 days’ treatment orally and divided as follows: Group I: 0.25% CMC (2 ml/kg), Group II: DEN (8 mg/kg, intraperitoneally), Group III: DEN+5-fluorouracil (5-FU, 10 mg/kg, intraperitoneally), Group IV: DEN+M1 (50 mg/kg, orally) and Group V: DEN+M1 (100 mg/kg, orally). The procedure to induce HCC was adopted from a paper by Song et al. where it is shown that DEN produces HCC at 8 mg/kg intraperitoneal injection for 28 days to albino Wistar rats. After initial 1 week of adaptive inhabitation, all rats of group II–V were administered with DEN (8 mg/kg, intraperitoneally) for 28 days. After 28 days, 5-FU and M1 were given for 15 days as mentioned above for group III–V. At the end of the experimental period, animals were sacrificed by cervical decapitation and livers were dissected out immediately, rinsed in ice cold saline and stored at -20°C for further studies. The serum was collected, processed and stored for further analysis.
All serum samples were thawed at room temperature, 250 μl of serum was taken and mixed with 250 μl of 0.9% saline sodium-phosphate buffer of strength 50 mM, pH 7.4 prepared in D2O. Then, the samples were centrifuged at 10,000 rpm for 5 min to remove any precipitates before acquiring the NMR data. A total 400 μl of the supernatant sample was used in 5 mm NMR tubes (Wilmad Glass, USA) for data acquisition with a co-axial insert containing the known concentration of TSP (sodium salt of 3-trimethylsilyl-(2,2,3,3-d4)-propionic acid) i.e. 0.1% was used as external standard reference to aid metabolite quantification for NMR experiment. Deuterium oxide (D2O; as a co-solvent and to provide a deuterium field/frequency lock) and sodium salt of trimethylsilylpropionic acid-d4 (TSP) used for NMR experiments, were purchased from Sigma-Aldrich (RI, USA).
All NMR spectra were recorded at 298 K on Bruker Biospin Avance-III 800 MHz NMR spectrometer operating at proton frequency of 800.21 MHz, equipped with CryoProbe and an actively shielded gradient unit with a maximum gradient-strength output of […]. The raw NMR data were processed in Topspin-2.1 (Bruker NMR data Processing Software). For each serum sample, one-dimensional ^1H-NMR and diffusion edited ^1H NMR spectra were recorded using the Carr–Purcell–Meiboom–Gill (CPMG) pulse sequence (cpmgpr1d, standard Bruker pulse program) with pre-saturation of the water peak through irradiating it continuously during the recycle delay (RD) of 5 sec, and the bipolar pulse pair longitudinal eddy current delay (BPP-LED) sequence, respectively. Each CPMG spectrum consisted of the accumulation of 128 scans and lasted for approximately 15 minutes. To remove broad signals from triglycerides, proteins, cholesterols and phospholipids, a total spin–spin relaxation time of 60 ms (n = 300 and 2τ=[…]) with a line broadening factor of 0.3 Hz was applied. For diffusion edited (DE)^1H NMR pulse sequence, the square gradients of 70% of the maximum gradient strength (56 G/cm) and 2 ms duration (followed by a delay of 200 μs to allow for the decay of eddy currents) were used. Diffusion time of 120 ms was used to attenuate the signals from low molecular weight compounds without affecting the lipid signals. All the spectra were processed using Topspin-2.1 (Bruker NMR data Processing Software) using standard Fourier Transformation (FT) procedure following manual phase and baseline-correction. Prior to FT, each FID was zero-filled to 4096 data points and a sine-bell apodisation function was applied. After FT, the chemical shifts were referenced internally to methyl peak of L-lactate (at δ=1.33 ppm). All recorded spectra were visually inspected for acceptability and subjected to multivariate statistical analysis to identify the altered metabolic pattern. […]

COc1cc2c(cc1OC)CC(C(=O)O)NC2 (stereo not shown) [M1, 6,7-dimethoxy-1,2,3,4-tetrahydro-isoquinoline-3-carboxylic acid]
Variation with respect to DEN: Acac (chemical shift 2.28) (DEN+M1 50 mg/kg orally): ↑
Variation with respect to DEN: Ace (chemical shift 1.92) (DEN+M1 50 mg/kg orally): ↓
Variation with respect to DEN: Acet (chemical shift 2.23) (DEN+M1 50 mg/kg orally): ↑
Variation with respect to DEN: Ala (chemical shift 1.48) (DEN+M1 50 mg/kg orally): ↓
Variation with respect to DEN: Betaine (chemical shift 3.265) (DEN+M1 50 mg/kg orally): ↓
Variation with respect to DEN: Chol (chemical shift 3.22) (DEN+M1 50 mg/kg orally): ↓
Variation with respect to DEN: Cit (chemical shift 2.52) (DEN+M1 50 mg/kg orally): ↑
Variation with respect to DEN: Cr (chemical shift 3.03) (DEN+M1 50 mg/kg orally): ↑
Variation with respect to DEN: L1 (LDL) (chemical shift 0.83–0.87) (DEN+M1 50 mg/kg orally): ↓
Variation with respect to DEN: L2 (VLDL) (chemical shift 0.87–0.90) (DEN+M1 50 mg/kg orally): ↑
Variation with respect to DEN: L3 (LDL) (chemical shift 1.23–1.27) (DEN+M1 50 mg/kg orally): ↓
Variation with respect to DEN: L4 (VLDL) (chemical shift 1.27–1.30) (DEN+M1 50 mg/kg orally): ↑
Variation with respect to DEN: L6 (chemical shift 2.00) (DEN+M1 50 mg/kg orally): ↓
Variation with respect to DEN: L9 (chemical shift 5.28) (DEN+M1 50 mg/kg orally): ↓
Variation with respect to DEN: Leu (chemical shift 0.96) (DEN+M1 50 mg/kg orally): ↑
Variation with respect to DEN: Lys (chemical shift 1.89) (DEN+M1 50 mg/kg orally): ↓
Variation with respect to DEN: NAG (chemical shift 2.02) (DEN+M1 50 mg/kg orally): ↑
Variation with respect to DEN: OAG (chemical shift 2.13) (DEN+M1 50 mg/kg orally): ↑
Variation with respect to DEN: Pyr (chemical shift 2.37) (DEN+M1 50 mg/kg orally): ↓
Variation with respect to DEN: Tyr (chemical shift 6.89) (DEN+M1 50 mg/kg orally): ↓
Variation with respect to DEN: Acac (chemical shift 2.28) (DEN+M1 100 mg/kg orally): ↑
Variation with respect to DEN: Ace (chemical shift 1.92) (DEN+M1 100 mg/kg orally): ↓
Variation with respect to DEN: Acet (chemical shift 2.23) (DEN+M1 100 mg/kg orally): ↑
Variation with respect to DEN: Ala (chemical shift 1.48) (DEN+M1 100 mg/kg orally): ↓
Variation with respect to DEN: Betaine (chemical shift 3.265) (DEN+M1 100 mg/kg orally): ↓
Variation with respect to DEN: Chol (chemical shift 3.22) (DEN+M1 100 mg/kg orally): ↓
Variation with respect to DEN: Cit (chemical shift 2.52) (DEN+M1 100 mg/kg orally): ↑
Variation with respect to DEN: Cr (chemical shift 3.03) (DEN+M1 100 mg/kg orally): ↓
Variation with respect to DEN: ILeu (chemical shift 1.00) (DEN+M1 100 mg/kg orally): ↑
Variation with respect to DEN: L1 (LDL) (chemical shift 0.83–0.87) (DEN+M1 100 mg/kg orally): ↓
Variation with respect to DEN: L2 (VLDL) (chemical shift 0.87–0.90) (DEN+M1 100 mg/kg orally): ↑
Variation with respect to DEN: L4 (VLDL) (chemical shift 1.27–1.30) (DEN+M1 100 mg/kg orally): ↑
Variation with respect to DEN: Leu (chemical shift 0.96) (DEN+M1 100 mg/kg orally): ↑
Variation with respect to DEN: Lys (chemical shift 1.89) (DEN+M1 100 mg/kg orally): ↓
Variation with respect to DEN: NAG (chemical shift 2.02) (DEN+M1 100 mg/kg orally): ↑
Variation with respect to DEN: Pyr (chemical shift 2.37) (DEN+M1 100 mg/kg orally): ↓
Variation with respect to DEN: Tyr (chemical shift 6.89) (DEN+M1 100 mg/kg orally): ↓
